# According to patent publication US20050215543A1, “Methods of treating HIV infection” (priority 2004, published 2005):
# Experiments:
# uninfected cells = assay: Cytotoxicity assay of drug combinations, uninfected cells, XTT assay; format: cell-based; conditions: combination with Compound 1 at the highest concentrations tested, 6 days
# Experimental: Drug Susceptibility and Cytotoxicity Assays. […] Each drug ratio consisted of an array of 3-fold serial dilutions, and was performed in quadruplicate. The plates were incubated at 37° C./5% CO2. […] On day-five post-infection, 20 μl from each well was harvested and quantitated by a reverse transcriptase (RT) assay, or in samples involving non-nucleoside RT inhibitors, an MTS assay. The PM-1 cells infected with HIV-1 Bal and used for studying the combinations with CCR5 inhibitors were incubated for six days. On day-six post-infection, 20 μl from each well was harvested, 20- and 50-fold diluted and quantitated by p24 assay. Cytotoxicity assays were performed using uninfected cells, exposed to the same drug combinations, and incubated for six days. Cell viability was determined by an XTT assay. The CC50 values were calculated by using the exponential form of the median effect equation as mentioned below for calculation of EC50.
# HIV-1 LAI = assay: microbe, parasite or virus in culture; conditions: for Combination Indices at % HIV Inhibition (Confidence Interval) 50%: 50% HIV inhibition; for Combination Indices at % HIV Inhibition (Confidence Interval) 50% / Combination Indices at % HIV Inhibition (Confidence Interval) 75% / Combination Indices at % HIV Inhibition (Confidence Interval) 90%: 95% CI in parenthesis; for Combination Indices at % HIV Inhibition (Confidence Interval) 75%: 75% HIV inhibition; for Combination Indices at % HIV Inhibition (Confidence Interval) 90%: 90% HIV inhibition
# [1] = combination with Compound 1, EC50 ratio 1:1
# [2] = combination with Compound 1, EC50 ratio 1:2.5
# [3] = combination with Compound 1, EC50 ratio 2.5:1
smiles,measurement,setting,value
"CON(Cc1ccc(F)cc1)C(=O)C=C(O)C(=O)O [Compound 2, 3-[(4-fluorobenzyl)methoxycarbamoyl]-2-hydroxyacrylic acid]",cytotoxicity of the drug combination,uninfected cells,No significant cytotoxicity
same,EC50,"HIV-1 LAI; Human immunodeficiency virus 1, MT2, 120 h",39 nM
same,Combination Indices at % HIV Inhibition (Confidence Interval) 50%,"HIV-1 LAI; combination with Compound 1, EC50 ratio 1:1 (Compound 1:comparator)","0.92 (0.77, 1.06)"
same,Combination Indices at % HIV Inhibition (Confidence Interval) 75%,HIV-1 LAI; [1],"0.90 (0.70, 1.10)"
same,Combination Indices at % HIV Inhibition (Confidence Interval) 90%,HIV-1 LAI; [1],"0.89 (0.58, 1.21)"
same,Combination Indices at % HIV Inhibition (Confidence Interval) 50%,HIV-1 LAI; [2],"0.71 (0.60, 0.82)"
same,Combination Indices at % HIV Inhibition (Confidence Interval) 75%,HIV-1 LAI; [2],"0.66 (0.51, 0.80)"
same,Combination Indices at % HIV Inhibition (Confidence Interval) 90%,HIV-1 LAI; [2],"0.61 (0.40, 0.82)"
same,Combination Indices at % HIV Inhibition (Confidence Interval) 50%,HIV-1 LAI; [3],"0.41 (0.36, 0.47)"
same,Combination Indices at % HIV Inhibition (Confidence Interval) 75%,HIV-1 LAI; [3],"0.41 (0.33, 0.48)"
same,Combination Indices at % HIV Inhibition (Confidence Interval) 90%,HIV-1 LAI; [3],"0.40 (0.28, 0.52)"
